What is called IC50 is the concentration needed to halve the response being measured.

In test [1] the test system is NCI-60 cell lines. Put plainly: NCI-60 […] IC50 values, cell lines with rs1805407 vs wild type. It is filed as cell-based. The conditions noted are these: NCI60 IC50 values, C/T or C/C (n=23) vs T/T (n=37). The text has this:
Given that TMZ damages the DNA and PARP1 has a critical role in DNA repair, one plausible hypothesis is that rs1805407 is either associated with increased PARP1 activity or decreased PARP1 trapping after treatment with alkylating agents (Murai J, et al. (2012) Cancer Res 72(21):5588-5599). The role of rs1805407 in cell response to various drugs was investigated. The NCI-60 […]™ database (Reinhold W C, et al. (2012) Cancer Res 72(14):3499-3511) contains the response of 60 cell lines to ˜50,000 compounds. It was evaluated whether drugs affect differentially the cell lines that have at least one copy of rs1805407 (C/T or C/C) vs wild type (T/T).
SNP imputation on TCGA samples and NCI-60 cell lines: NCI-60 data were obtained from Cell Miner in June 2013 (discover.nci_nih.gov/cellminer/). For those cell lines or TCGA samples for which the identity of SNP rs1805407 was not available we used imputation to infer its identity. Using SNAP (17) we found 51 SNPs to be in perfect linkage disequilibrium (LD) with rs1805407 (R^2=1). Of these, 9 variants were covered by the Affymetrix SNP Array 6.0 used by the TCGA. To determine the rs1805407 genotype in TCGA samples birdseed calls (Korn J M, et al. (2008) Nature genetics 40(10):1253-126) from Affymetrix Genome-Wide Human SNP Array 6.0 were used. Only samples with a birdseed confidence less than 0.1 or where all 9 SNPs in perfect LD agreed with the birdseed call were used.

The test system of test [2] is H-522. Put plainly: MTT cell proliferation assay, MMS alone or with ABT-888. It counts as cell-based. The conditions noted are these: Homo sapiens, NCI-H522, H-522 lung, PARP1/SNP T/T, MMS alone, 72 h, mean (±SD). The source says:
(§1) PARP1 cell proliferation and drug interaction assays: RPMI 1640 and Dulbecco's modified Eagle medium (DMEM) with L-Glutamine, cell culture media were purchased from Cellgro (Mediatech, Inc.). Heat-inactivated Foundation Fetal bovine serum (FBS) was purchased from Gemini bio-products. The alkylating agent, methyl methanesulfonate (MMS) was purchased from Sigma. The PARPi veliparib (ABT-888, Abbott Laboratories, Abbott Park, Ill., USA) was used in the cell proliferation assays. The ABT-888 used in the drug interaction assays was purchased from Selleck Chemicals LLC (Huston, Tex., USA). MMS is an alkylating agent that results in DNA damage at the same bases as dacarbazine and temozolomide and has been used extensively as an alternative in the laboratory setting. ABT-888 was dissolved in dimethyl sulfoxide (DMSO) to a stock solution of 10 mM. A 10 μM working solution was then prepared in PBS for subsequent serial dilutions.
(§2) The cytotoxic effect of the PARP inhibitor veliparib (ABT-888) and the alkylating agent, MMS was assessed using the MTT colorimetric dye reduction assay, according to the manufacturer's instructions (TACS® MTT Cell Proliferation Assay (MTT-CPA) from Trevigen, Inc.). MTT assay was used for each cell line to determine the half-maximal (50%) inhibitory concentration (IC50) values of MMS alone or in combination with ABT-888. Briefly, cells were seeded in triplicates in 96 wells at appropriate cell density (optimized for each individual cell line to have exponentially growing cells during the course of the assay), in their regular culture medium (DMEM with L-Glutamine from Cellgro (Mediatech, Inc.)). After 24 h, the medium was aspirated and the cells were incubated with increasing concentrations of MMS alone (0 to 1 mM) or in the presence of a fixed concentration (10 nM final) of ABT-888 (six replicates for each combination treatment) for 72 h at 37° C. Then, 10 μl of MTT Reagent was added to each well and the plates were incubated for another 4 h at 37° C. in the dark. In each well, 100 μl of Detergent Reagent was then added and incubated at 37° C. until complete solubilization of formazan crystals.
(§3) In single drug treatment experiments (MMS alone), drug-free controls containing 0.5% DMSO were included. In drug combination experiments with increasing concentrations of MMS, the samples with PARPi alone (fixed concentration of 10 nM of ABT-888), were used as controls. All control values were normalized to 100%. Cell viability was measured by reading the absorbance at 570 nm using a Tecan (Safire 2) microplate reader. Reading was converted to the percentage of the controls. The values obtained for each of the triplicates were averaged, and IC50 values were defined as the concentrations of drug(s) that inhibited growth by 50% relative to controls. The data from the MTT assay were expressed as mean IC50±standard deviation (SD). The IC50 of ABT-888, MMS and linear regression analysis were computed by […] Prism 5.0 program ([…] Software, Inc., San Diego, Calif.). For each cell line, the P-value was calculated using the Student t-test (two-tailed, paired) to compare the IC50 means of each treatment group (MMS alone or MMS+ABT-888).

The subject of test [3] is MDA-MB-231. Described as above. It is filed as cell-based. The note with it: Homo sapiens, MDA-MB-231 breast, PARP1/SNP C/T, MMS alone, 72 h, mean (±SD).
Source text: as §1, §2, §3

The subject of test [4] is M14. The description is as above. It counts as cell-based. The note with it: Homo sapiens, M14 melanoma, PARP1/SNP C/T, MMS alone, 72 h, mean (±SD).
Source text: as §1, §2, §3

The test system of test [5] is A2780. Described as above. It is filed as cell-based. The conditions noted are these: Homo sapiens, A2780 ovarian, PARP1/SNP C/T, MMS alone, 72 h, mean (±SD).
Source text: as §1, §2, §3

For test [6], the system named is A375. Described as above. It counts as cell-based. The conditions noted are these: Homo sapiens, A-375, A375 melanoma, PARP1/SNP T/T, MMS alone, 72 h, mean (±SD).
Source text: as §1, §2, §3

In test [7] the test system is MCF-7. The description is as above. It is filed as cell-based. The conditions noted are these: Homo sapiens, MCF7, MCF-7 breast, PARP1/SNP C/T, MMS alone, 72 h, mean (±SD).
Source text: as §1, §2, §3

Test [8] concerns FEMX. The description is as above. It counts as cell-based. The note with it: Homo sapiens, Fem-X, FEMX melanoma, PARP1/SNP T/T, MMS alone, 72 h, mean (±SD).
Source text: as §1, §2, §3

Test [9] relates to SW620. Described as above. It is filed as cell-based. The note with it: Homo sapiens, SW-620, SW620 colon, PARP1/SNP T/T, MMS alone, 72 h, mean (±SD).
Source text: as §1, §2, §3

The test system of test [10] is A549. Described as above. It is filed as cell-based. The note with it: Homo sapiens, A549 lung, PARP1/SNP C/T, MMS alone, 72 h, mean (±SD).
Source text: as §1, §2, §3

In test [11] the test system is metastatic melanoma patients. Nature of the test: Response to TMZ treatment in metastatic melanoma patients by rs1805407 genotype. It is filed as in vivo, human. The conditions noted are these: all 21 patients that had the SNP rs1805407 (C/T or C/C). The source says:
The melanoma dataset consisted of whole genome gene expression, microRNA expression, DNA methylation, and data from the selected SNP panel. MGM-Learn was used to learn a network over the top 1000 features most correlated (pairwise) with “response” to treatment clinical variable, a binary variable indicating response/no response to temozolomide (TMZ) treatment dichotomized at presence of a response or stability of disease at 4 months of therapy. The 1,000 most correlated features in the input dataset included 557 mRNA expression probes, 425 methylation probes, 14 miRNA probes and 4 SNPs. […] The largest interconnected output network included 20 features connected to the response variable in our initial (undirected) learned network (FIG. 2A). It was emphasized that these features were connected to the response variable not only because they have high pairwise correlation with it (FIG. 2B), but also because they are dependent on response even when conditioned on all other variables included in the input. In this sense, they represent direct (causal) interactions and not simple biomarkers. From the 20 features initially connected to response, 15 were left connected after causal filtering (FIG. 2A, black lines). […]
Melanoma study design: Using a retrospective cohort study design, 69 patients with metastatic melanoma who were treated with alkylator-based chemotherapy were evaluated. […]

Consider `O=NN(CCCl)C(=O)NCCCl` [Carmustine], for which the “resistance or sensitivity of cell lines with at least one allele of rs1805407 vs wild type” value (shortened to “resistance or sensitivity … vs wild type”) in [1] was “Increased resistance”.

Consider `O=P1(N(CCCl)CCCl)NCCCO1` (centres unmarked) [Cyclophosphamide], for which the “resistance or sensitivity … vs wild type” value in [1] is recorded as “Increased resistance”.

On to `CC1=C(CO)C2=C(C)C3(CC3)[C@@](C)(O)C(=O)C2=C1` [Irofulven, Hydroxymethylacylfulvene], for which the “resistance or sensitivity … vs wild type” value in test [1] is “Increased sensitivity”.

As to `COS(C)(=O)=O` [MMS, methyl methanesulfonate], the IC50 is 578 µM in [2]; 260 µM in [3]; 521 µM in test [4]; 190 µM in test [5]; 306 µM in test [6]; 193 µM in test [7]. Besides, the IC50 worked out at 166 µM in [8], 299 µM in test [9] and 255 µM in [10].

In the case of `Cn1nnc2c(C(N)=O)ncn2c1=O` [TMZ, temozolomide], the “response to TMZ treatment” value in test [11] was “no response”.

On to `O=C(c1cc(Cc2n[nH]c(=O)c3ccccc23)ccc1F)N1CCN(C(=O)C2CC2)CC1` [olaparib], for which the “resistance or sensitivity … vs wild type” value in [1] is “slight increase in sensitivity”.

The record behind these values is patent publication US10260108B2, “PARP genomic variants conferring resistance and sensitization to chemotherapy under inhibition” (University of Pittsburgh—Of the Commonwealth System of …, priority 2014, dated 2019).
